The values below come from patent publication US20250171495A1, “MUTLI-TARGETED SERINE PROTEASE INHIBITORS FOR TREATMENT OF CANCER AND VIRAL INFECTION” (Washington University, priority 2023, published 2025).

Read-outs that look alike come from different tables or passages of the source.

The target of data set [1] is T1, matriptase (Homo sapiens, UniProt Q9Y5Y6).
T1 construct: purchased R&D Systems 3946-SEB-010
T1 sequence (Q9Y5Y6 615-855 limits assumed): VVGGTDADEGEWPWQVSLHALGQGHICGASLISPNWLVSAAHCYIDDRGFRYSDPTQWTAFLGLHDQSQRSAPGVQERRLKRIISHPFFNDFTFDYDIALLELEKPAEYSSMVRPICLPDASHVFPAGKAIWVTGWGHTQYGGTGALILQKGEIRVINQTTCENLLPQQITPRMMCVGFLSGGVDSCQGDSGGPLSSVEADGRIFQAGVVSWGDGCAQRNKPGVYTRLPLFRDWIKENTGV
As to the kind of experiment: Fluorogenic kinetic enzyme inhibitor assay, matriptase. The settings on record: read-out: Matriptase IC50. It counts as biochemical.

Data set [2] deals with T2, hepsin (Homo sapiens, UniProt P05981).
T2 construct: purchased R&D Systems 4776-SE-010
T2 sequence (P05981 163-417 limits assumed): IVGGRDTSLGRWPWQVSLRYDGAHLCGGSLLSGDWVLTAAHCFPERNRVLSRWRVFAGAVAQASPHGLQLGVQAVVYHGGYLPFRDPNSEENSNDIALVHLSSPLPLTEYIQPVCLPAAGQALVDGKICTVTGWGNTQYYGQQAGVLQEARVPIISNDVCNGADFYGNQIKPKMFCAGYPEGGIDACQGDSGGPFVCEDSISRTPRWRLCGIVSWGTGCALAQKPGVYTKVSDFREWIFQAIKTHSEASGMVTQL
T2 sequence (P05981 1-162 partner limits assumed): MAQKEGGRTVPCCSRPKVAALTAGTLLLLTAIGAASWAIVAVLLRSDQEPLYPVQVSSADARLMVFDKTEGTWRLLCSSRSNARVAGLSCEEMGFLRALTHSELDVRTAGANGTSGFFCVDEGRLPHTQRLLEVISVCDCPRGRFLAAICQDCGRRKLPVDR
As to the kind of experiment: Fluorogenic kinetic enzyme inhibitor assay, hepsin. The settings on record: read-out: Hepsin IC50. Type of data set: biochemical.

Data set [3] deals with T3, HGFA (Homo sapiens, UniProt Q04756).
T3 construct: purchased R&D Systems 1514-SE-010
T3 sequence (Q04756 408-655 limits assumed): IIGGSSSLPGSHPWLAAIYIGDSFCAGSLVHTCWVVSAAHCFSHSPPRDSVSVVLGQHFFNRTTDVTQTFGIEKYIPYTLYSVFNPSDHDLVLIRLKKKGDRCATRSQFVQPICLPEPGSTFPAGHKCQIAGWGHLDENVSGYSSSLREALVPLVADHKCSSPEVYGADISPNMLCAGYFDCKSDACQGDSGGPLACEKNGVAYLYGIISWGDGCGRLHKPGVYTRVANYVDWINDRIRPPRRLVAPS
T3 sequence (Q04756 373-407 partner limits assumed): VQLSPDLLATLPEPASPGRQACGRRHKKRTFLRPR
Put plainly: Fluorogenic kinetic enzyme inhibitor assay, HGFA. Type of data set: biochemical. The settings on record: read-out: HGFA IC50.

For data set [4], the target named is Thrombin (Homo sapiens, UniProt P00734). Put plainly: Fluorogenic assay, thrombin. It counts as biochemical.
Data set [5] deals with T4, Factor Xa (Homo sapiens, UniProt P00742).
T4 construct: TMPRSS2; Matriptase; Hepsin; HGFA; Thrombin; Factor Xa
T4 sequence (P00742 235-488 limits assumed): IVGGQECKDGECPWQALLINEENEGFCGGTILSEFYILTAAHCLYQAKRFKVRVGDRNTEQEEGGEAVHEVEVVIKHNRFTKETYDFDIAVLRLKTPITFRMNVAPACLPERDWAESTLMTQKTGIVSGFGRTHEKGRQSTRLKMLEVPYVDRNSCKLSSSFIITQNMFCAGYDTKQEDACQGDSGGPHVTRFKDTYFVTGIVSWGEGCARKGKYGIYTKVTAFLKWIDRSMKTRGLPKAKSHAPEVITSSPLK
T4 sequence (P00742 41-179 partner limits assumed): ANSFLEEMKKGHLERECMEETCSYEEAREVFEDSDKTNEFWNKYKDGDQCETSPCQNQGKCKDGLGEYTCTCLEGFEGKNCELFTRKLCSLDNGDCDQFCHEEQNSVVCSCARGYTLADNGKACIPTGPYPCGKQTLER
As to the kind of experiment: Fluorogenic assay, Factor Xa. Type of data set: biochemical. Conditions: read-out: Factor Xa IC50.

For data set [6], the system named is SARS-CoV-2. Type of data set: cell-based. Set-up: unit not given here.
Data set [7] addresses TMPRSS2 (Homo sapiens, UniProt O15393). As to the kind of experiment: Fluorogenic kinetic enzyme inhibitor assay, TMPRSS2. It counts as biochemical. Set-up: purchased Cusabio Technology CSB-YP023924HU.

Sequence of TMPRSS2 (O15393 106-492 limits assumed): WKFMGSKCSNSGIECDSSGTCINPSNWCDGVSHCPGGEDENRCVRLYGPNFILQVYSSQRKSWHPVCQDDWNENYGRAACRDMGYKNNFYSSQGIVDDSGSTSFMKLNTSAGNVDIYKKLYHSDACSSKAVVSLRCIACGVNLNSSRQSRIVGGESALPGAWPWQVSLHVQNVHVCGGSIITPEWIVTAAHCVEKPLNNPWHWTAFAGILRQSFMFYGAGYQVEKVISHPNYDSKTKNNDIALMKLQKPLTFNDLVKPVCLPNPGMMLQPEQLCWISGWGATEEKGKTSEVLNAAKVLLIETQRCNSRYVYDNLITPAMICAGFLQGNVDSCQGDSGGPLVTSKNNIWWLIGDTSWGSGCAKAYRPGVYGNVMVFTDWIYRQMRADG

The compound `CC(=O)N[C@H]1CC(=O)NCCCC[C@@H](C(=O)O)NC(=O)[C@H](CC(C)C)NC1=O` gave a ring closure, yield of all isomers (from CC(=O)N[C@@H](CC(=O)O)C(=O)N[C@@H](CC(C)C)C(=O)N[C@@H](CCCCN)C(=O)O, amide bond, EDCI/HOBt/iPr2NEt, DMF, 21.25 mM, 25.0 °C, 16.0 h, 9 steps) of 59.1%.

For `COC(=O)[C@@H]1CC=CCOc2ccc(cc2)C[C@H](NC(C)=O)C(=O)N[C@@H](CC(C)C)C(=O)N1` [Ac-cyclo-(L) Tyr-Leu-allyl-OMe], the ring closure, yield of all isomers (from C=CCOc1ccc(C[C@H](NC(C)=O)C(=O)N[C@@H](CC(C)C)C(=O)N[C@@H](CC=C)C(=O)OC)cc1, rcm bond, Grubbs 2nd generation catalyst, DCM, 1.28 mM, 40.0 °C, 18.0 h) amounted to 65%.

Turning to `CC(=O)N[C@H]1CC(=O)NCCCC[C@@H](C(=O)N[C@@H](CCCNC(=N)N)C(=O)c2nc3ccccc3s2)NC(=O)[C@H](CC(C)C)NC1=O` [VD2173, Ac-Cyclo(DLK)—R-ketobenzothiazole], the IC50 in data set [1] came to 2.6 nM; in data set [2], 19 nM; in data set [3], 8520 nM; in data set [4], 8140 nM; in data set [5], 2050 nM; in data set [7], 2.14 nM. In data set [6], the “SARS-CoV-2 Calu-3- titer (0.01 uM)” value was found to be 11. Also, the “SARS-CoV-2 Calu-3 titer (0.1 uM)” value in data set [6] is 17. Also, the “SARS-CoV-2 Calu-3 titer (1 uM)” value in data set [6] was determined as 57.

In general, IC50 refers to the midpoint of a concentration-inhibition curve.
